Results as given in patent publication US12479856B2, “Pharmaceutical compounds for the treatment of complement mediated disorders” (Achillion Pharmaceuticals, Inc., priority 2019, dated 2025).
Read-outs that look alike come from different tables or passages of the source.

Biological target: T1, Human complement C1s enzyme (Homo sapiens, UniProt P09871)
T1 construct: purified from human serum, Complement Technology, Inc; purchased Complement Technology, Inc; host or cells: human serum (plasma-derived natural protein)
T1 sequence (P09871 438-688 limits assumed): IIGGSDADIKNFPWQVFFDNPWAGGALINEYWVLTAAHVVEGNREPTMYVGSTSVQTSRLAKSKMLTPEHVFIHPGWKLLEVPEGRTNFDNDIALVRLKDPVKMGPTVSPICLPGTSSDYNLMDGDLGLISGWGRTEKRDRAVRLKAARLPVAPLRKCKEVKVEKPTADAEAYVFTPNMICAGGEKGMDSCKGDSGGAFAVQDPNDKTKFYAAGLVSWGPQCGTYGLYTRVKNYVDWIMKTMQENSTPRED
T1 sequence (P09871 16-437 partner limits assumed): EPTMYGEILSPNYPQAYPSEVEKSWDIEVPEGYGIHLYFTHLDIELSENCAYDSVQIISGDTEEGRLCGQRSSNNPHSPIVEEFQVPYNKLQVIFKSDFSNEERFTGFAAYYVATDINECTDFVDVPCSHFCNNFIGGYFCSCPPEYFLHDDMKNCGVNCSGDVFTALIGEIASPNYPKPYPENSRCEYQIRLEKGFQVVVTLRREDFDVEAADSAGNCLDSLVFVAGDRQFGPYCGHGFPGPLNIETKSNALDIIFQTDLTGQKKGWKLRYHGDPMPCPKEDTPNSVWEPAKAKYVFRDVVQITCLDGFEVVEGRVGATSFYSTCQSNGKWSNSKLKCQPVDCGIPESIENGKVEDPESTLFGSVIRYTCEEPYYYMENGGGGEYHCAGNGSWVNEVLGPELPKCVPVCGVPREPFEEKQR
Test: Human C1s Enzyme Assay
Type: biochemical
Conditions: C1s purified from human serum, 1.16 nM, substrate Z-L-Lys-SBzl, read-out: C1s Protease Activity
Procedure: Example 4. Human C1s Enzyme Assay
Human complement C1s enzyme (purified from human serum, Complement Technology, Inc.) at 1.16 nM final concentration is incubated with test compound at various concentrations for 5 min at room temperature in 50 mM Tris, 1 M NaCl, pH 7.5. A synthetic substrate Z-L-Lys-SBzl and DTNB (Ellman's reagent) are added to final concentrations of 100 μM each. Absorbance at 405 nm (A405) is recorded at 30 second intervals for 30 min using a microplate spectrophotometer. IC50 values are calculated by nonlinear regression of complement C1s reaction rates as a function of test compound concentration.

| SMILES | IC50 (Table 2) | also measured |
| --- | --- | --- |
| C[C@@]1(C(=O)NCc2cc(C(=N)N)cs2)CCCN1C(=O)CNC(=O)c1ccc(Oc2ccccc2)cc1 [Compound 3, (2S)—N-[(4-Carbamimidoylthiophen-2-yl)methyl]-2-methyl-1-{2-[(4-phenoxyphenyl)formamido]acetyl}pyrrolidine-2-carboxamide] | – | IC50 (Table 1): < 100 nM |
| CCCOc1ccc(C(=O)NCC(=O)N2CCC[C@H]2C(=O)NCc2cc(C(=N)N)cs2)cc1 [Compound 77, (S)-N-((4-carbamimidoylthiophen-2-yl)methyl)-1-((4-propoxybenzoyl)glycyl)pyrrolidine-2-carboxamide] | < 100 nM | – |
| NCCCCNC(=O)[C@@H]1CC2(CN1C(=O)CNC(=O)c1ccc(Oc3ccccc3)cc1)OCCO2 [Compound 25, (8S)—N-(4-Aminobutyl)-7-{2-[(4-phenoxyphenyl)formamido]acetyl}-1,4-dioxa-7-azaspiro[4.4]nonane-8-carboxamide] | – | IC50 (Table 1): > 1000 nM |
| C=C(CCC(=O)N1CCC[C@H]1C(=O)NCc1cc(C(=N)N)cs1)c1ccc(Oc2ccccc2)cc1 [Compound 40, (S)-N-((4-carbamimidoylthiophen-2-yl)methyl)-1-(4-(4-phenoxyphenyl)pent-4-enoyl)pyrrolidine-2-carboxamide] | 100 to 1000 nM | – |
| C[C@@]12C[C@@H]1N(C(=O)CNC(=O)c1ccc(Oc3ccc(S(F)(F)(F)(F)F)cc3)cc1)[C@H](C(=O)NCc1cc(C(=N)N)cs1)C2 [Compound 95, (1S,3S,5S)-N-((4-carbamimidoylthiophen-2-yl)methyl)-5-methyl-2-((4-(4-(pentafluoro-16-sulfaneyl)phenoxy)benzoyl)glycyl)-2-azabicyclo[3.1.0]hexane-3-carboxamide] | – | IC50 (Table 3): < 100 nM |
| C[C@@]12C[C@@H]1N(C(=O)CNC(=O)c1ccc(Oc3ccccc3)cc1)[C@H](C(=O)NCc1cc(/C(N)=N/O)cs1)C2 [Compound 94, (1S,3S,5S)-N-((4-((Z)-N′-hydroxycarbamimidoyl)thiophen-2-yl)methyl)-5-methyl-2-((4-phenoxybenzoyl)glycyl)-2-azabicyclo[3.1.0]heptane-3-carboxamide] | – | IC50 (Table 3): > 1000 nM |
| N=C(N)c1csc(CNC(=O)[C@@H]2CSCN2C(=O)CNC(=O)c2ccc(Oc3ccccc3)cc2)c1 [Compound 4, (4R)—N-[(4-Carbamimidoylthiophen-2-yl)methyl]-3-{2-[(4-phenoxyphenyl)formamido]acetyl}-1,3-thiazolidine-4-carboxamide] | – | IC50 (Table 1): < 100 nM |
| N=C(N)c1csc(CNC(=O)[C@@H]2CCCN2C(=O)CCC(=O)c2ccc(Oc3ccccc3)cc2)c1 [Compound 52, (S)-N-((4-carbamimidoylthiophen-2-yl)methyl)-1-(4-oxo-4-(4-phenoxyphenyl)butanoyl)pyrrolidine-2-carboxamide] | < 100 nM | – |
| N=C(N)c1ccc(CNC(=O)[C@@H]2CC3(CN2C(=O)CNC(=O)c2ccc(Oc4ccccc4)cc2)OCCO3)s1 [Compound 92, (S)-N-((5-carbamimidoylthiophen-2-yl)methyl)-7-((4-phenoxybenzoyl)glycyl)-1,4-dioxa-7-azaspiro[4.4]nonane-8-carboxamide] | – | IC50 (Table 3): < 100 nM |
| N=C(N)c1csc(CNC(=O)[C@@H]2CCCN2C(=O)CCC2(c3ccc(Oc4ccccc4)cc3)CC2)c1 [Compound 44, (S)-N-((4-carbamimidoylthiophen-2-yl)methyl)-1-(3-(1-(4-phenoxyphenyl)cyclopropyl)propanoyl)pyrrolidine-2-carboxamide] | > 1000 nM | – |
| NCCCCCNC(=O)[C@@H]1CC2(CN1C(=O)CNC(=O)c1ccc(Oc3ccccc3)cc1)OCCO2 [Compound 26, (8S)—N-(5-Aminopentyl)-7-{2-[(4-phenoxyphenyl)formamido]acetyl}-1,4-dioxa-7-azaspiro[4.4]nonane-8-carboxamide] | – | IC50 (Table 1): > 1000 nM |
| CCCCOc1ccc(C(=O)NCC(=O)N2CCC[C@H]2C(=O)NCc2cc(C(=N)N)cs2)cc1 [Compound 78, (S)-1-((4-butoxybenzoyl)glycyl)-N-((4-carbamimidoylthiophen-2-yl)methyl)pyrrolidine-2-carboxamide] | < 100 nM | – |
| Cc1ccccc1O[C@H]1C[C@@H](C(=O)NCc2cc(C(=N)N)cs2)N(C(=O)CNC(=O)c2ccc(Oc3ccccc3)cc2)C1 [Compound 105, (2S,4S)-N-((4-carbamimidoylthiophen-2-yl)methyl)-1-((4-phenoxybenzoyl)glycyl)-4-(o-tolyloxy)pyrrolidine-2-carboxamide] | – | IC50 (Table 3): < 100 nM |
| N=C(N)c1csc(CNC(=O)[C@@H]2C[C@@H](C(F)(F)F)CN2C(=O)CNC(=O)c2ccc(Oc3ccccc3)cc2)c1 [Compound 98, (2S,4R)-N-((4-carbamimidoylthiophen-2-yl)methyl)-1-((4-phenoxybenzoyl)glycyl)-4-(trifluoromethyl)pyrrolidine-2-carboxamide] | – | IC50 (Table 3): < 100 nM |
| CCCCCC(=O)NCC(=O)N1CCC[C@H]1C(=O)NCc1cc(C(=N)N)cs1 [Compound 82, (S)-N-((4-carbamimidoylthiophen-2-yl)methyl)-1-(hexanoylglycyl)pyrrolidine-2-carboxamide] | 100 to 1000 nM | – |
| N=C(N)c1csc(CNC(=O)[C@@H]2C[C@H](C(F)(F)F)CN2C(=O)CNC(=O)c2ccc(Oc3ccccc3)cc2)c1 [Compound 100, (2S,4S)-N-((4-carbamimidoylthiophen-2-yl)methyl)-1-((4-phenoxybenzoyl)glycyl)-4-(trifluoromethyl)pyrrolidine-2-carboxamide] | – | IC50 (Table 3): < 100 nM |
| Cc1cc(C(=O)NCC(=O)N2CC3(C[C@H]2C(=O)NCc2cc4c(N)nccc4s2)OCCO3)ccc1Oc1ccccc1 [Compound 64, (S)-N-((4-aminothieno[3,2-c]pyridin-2-yl)methyl)-7-((3-methyl-4-phenoxybenzoyl)glycyl)-1,4-dioxa-7-azaspiro[4.4]nonane-8-carboxamide] | 100 to 1000 nM | – |
| C[C@@]12C[C@@H](C(=O)NCc3cc(C(=N)N)cs3)N(C(=O)CNC(=O)c3ccc(Oc4ccccc4)cc3)[C@@H]1C2 [Compound 8, (1R,3S,5R)—N-[(4-Carbamimidoylthiophen-2-yl)methyl]-5-methyl-2-{2-[(4-phenoxyphenyl)formamido]acetyl}-2-azabicyclo[3.1.0]hexane-3-carboxamide] | – | IC50 (Table 1): < 100 nM |

Now from value to compound, other results behind:

| IC50 (Table 2) | SMILES | also measured |
| --- | --- | --- |
| < 100 nM | CCCCCc1ccc(C(=O)NCC(=O)N2CCC[C@H]2C(=O)NCc2cc(C(=N)N)cs2)cc1 [Compound 74, (S)-N-((4-carbamimidoylthiophen-2-yl)methyl)-1-((4-pentylbenzoyl)glycyl)pyrrolidine-2-carboxamide] | – |
| > 1000 nM | N=C(N)NOCCNC(=O)[C@@H]1CC2(CN1C(=O)CNC(=O)c1ccc(Oc3ccccc3)cc1)OCCO2 [Compound 65, (S)-N-(2-(guanidinooxy)ethyl)-7-((4-phenoxybenzoyl)glycyl)-1,4-dioxa-7-azaspiro[4.4]nonane-8-carboxamide] | – |
| > 1000 nM | C[C@H](OCc1ccccc1)[C@H](OCc1ccccc1)[C@@H](OCc1ccccc1)[C@H](CN(CC(=O)N1CC2(C[C@H]1C(=O)NCc1nc(C(=N)N)cs1)OCCO2)C(=O)OCc1ccccc1)OCc1ccccc1 [Compound 89, benzyl (2-((S)-8-(((4-carbamimidoylthiazol-2-yl)methyl)carbamoyl)-1,4-dioxa-7-azaspiro[4.4]nonan-7-yl)-2-oxoethyl)((2S,3S,4S,5S)-2,3,4,5-tetrakis(benzyloxy)hexyl)carbamate] | – |
| < 100 nM | CCCCCCCCCC(=O)NCC(=O)N1CCC[C@H]1C(=O)NCc1cc(C(=N)N)cs1 [Compound 86, (S)-N-((4-carbamimidoylthiophen-2-yl)methyl)-1-(decanoylglycyl)pyrrolidine-2-carboxamide] | – |
| 100 to 1000 nM | N=C(N)c1csc(CNC(=O)[C@@H]2CCCN2C(=O)COCc2ccc(Oc3ccccc3)cc2)c1 [Compound 38, (S)-N-((4-carbamimidoylthiophen-2-yl)methyl)-1-(2-((4-phenoxybenzyl)oxy)acetyl)pyrrolidine-2-carboxamide] | – |
| < 100 nM | Cc1cc(C(=O)NCC(=O)N2[C@H]3C[C@@]3(C)C[C@H]2C(=O)NCc2cc(C(=N)N)cs2)ccc1Oc1ccccc1 [Compound 48, (1S,3S,5S)-N-((4-carbamimidoylthiophen-2-yl)methyl)-5-methyl-2-((3-methyl-4-phenoxybenzoyl)glycyl)-2-azabicyclo[3.1.0]hexane-3-carboxamide] | – |
| < 100 nM | Cc1cc(C(=O)NCC(=O)N2CC3(C[C@H]2C(=O)NCc2nc(C(=N)N)co2)OCCO3)ccc1Oc1ccccc1 [Compound 51, (S)-N-((4-carbamimidoyloxazol-2-yl)methyl)-7-((3-methyl-4-phenoxybenzoyl)glycyl)-1,4-dioxa-7-azaspiro[4.4]nonane-8-carboxamide] | – |
